# Experimental data from ChEMBL document CHEMBL3244039, “Antiviral activity of some beta-diketones. 2. Aryloxy alkyl diketones. In vitro activity against both RNA and DNA viruses” (1977).
# Calls of active or inactive are those of the source. The calls are words filed in the database; no cut-off is given here.
# How the values were obtained:
# Human alphaherpesvirus 2 [1] = test: Antiviral activity against Herpes simplex virus 2 assessed as inhibition of virus-induced cytopathic effect at 50 ug/ml after 72 hrs by two-fold dilution method; format: functional, organism-based
# Equine rhinovirus [2] = test: Antiviral activity against Equine rhinovirus assessed as inhibition of virus-induced cytopathic effect after 48 hrs by two-fold dilution method
# Human alphaherpesvirus 2 [3] = test: Antiviral activity against Herpes simplex virus 2 assessed as inhibition of virus-induced cytopathic effect after 72 hrs by two-fold dilution method; format: functional; conditions: Human alphaherpesvirus 2, 72 h
# Human alphaherpesvirus 1 [4] = test: Antiviral activity against Herpes simplex virus 1 Sheely assessed as inhibition of virus-induced cytopathic effect at 37 degC after 72 hrs by two-fold dilution method; format: functional; conditions: Human alphaherpesvirus 1, Sheely
# Human alphaherpesvirus 2 [5] = test: Antiviral activity against Herpes simplex virus 2 Curtis assessed as inhibition of virus-induced cytopathic effect at 37 degC after 72 hrs by two-fold dilution method; format: functional; conditions: Human alphaherpesvirus 2, Curtis
# [6] = system: unidentified influenza virus; test: Antiviral activity against Parainfluenza virus assessed as inhibition of virus-induced cytopathic effect at 37 degC after 72 hrs by two-fold dilution method; format: functional
# Influenza A virus [7] = test: Antiviral activity against Influenza A2 virus Jap 170 infected in ferret trachea assessed as reduction in viral yield at 400 ug/ml after 3 days followed by compound-washout measured after 24 hrs by chick embryo-based hemagglutination titration method relative to control; format: functional; parameters: scale not given: the % may be the effect or the level left
# Equine rhinovirus [8] = test: Antiviral activity against Equine rhinovirus infected in rhesus monkey trachea assessed as reduction in viral yield at 200 ug/ml after 3 days followed by compound-washout measured after 24 hrs by human CATR cell-based titration method relative to control; parameters: scale not given: the % may be the effect or the level left
# [9] = system: Respiratory syncytial virus; test: Antiviral activity against Respiratory syncytial virus assessed as inhibition of virus-induced cytopathic effect at 37 degC after 72 hrs by two-fold dilution method; format: functional; conditions: human respiratory syncytial virus
# Equine rhinovirus [10] = test: Antiviral activity against Equine rhinovirus infected in rhesus monkey trachea assessed as reduction in viral yield at 400 ug/ml after 3 days followed by compound-washout measured after 24 hrs by human CATR cell-based titration method relative to control; parameters: scale not given: the % may be the effect or the level left
# rhinovirus A2 = test: Antiviral activity against Human rhinovirus 2 assessed as inhibition of virus-induced cytopathic effect at 37 degC after 72 hrs by two-fold dilution method; format: functional; conditions: Rhinovirus A
# Influenza A virus [11] = test: Antiviral activity against Influenza A2 virus Jap 170 infected in ferret trachea assessed as reduction in viral yield at 200 ug/ml after 3 days followed by compound-washout measured after 24 hrs by chick embryo-based hemagglutination titration method relative to control v; format: functional; parameters: scale not given: the % may be the effect or the level left
# Equine rhinovirus [12] = test: Antiviral activity against Equine rhinovirus infected in rhesus monkey trachea assessed as reduction in viral yield at 100 ug/ml after 3 days followed by compound-washout measured after 24 hrs by human CATR cell-based titration method relative to control v; parameters: scale not given: the % may be the effect or the level left
# [13] = Antiviral activity against Human rhinovirus 17 assessed as inhibition of virus-induced cytopathic effect at 37 degC after 72 hrs by two-fold dilution method; format: functional, Human rhinovirus B17; conditions: Rhinovirus B
# rhinovirus B14 = test: Antiviral activity against Human rhinovirus 14 assessed as inhibition of virus-induced cytopathic effect at 37 degC after 72 hrs by two-fold dilution method; format: functional; conditions: Rhinovirus B
# Human alphaherpesvirus 1 [14] = test: Antiviral activity against Herpes simplex virus 1 assessed as inhibition of virus-induced cytopathic effect at 37 degC after 72 hrs by two-fold dilution method; format: functional; conditions: Human alphaherpesvirus 1, 72 h
Structure (SMILES),inhibition (Human alphaherpesvirus 2 [1]),MIC (Equine rhinovirus [2]) [µg/mL],MIC (Human alphaherpesvirus 2 [3]) [µg/mL],further results
CCC(=O)C(CCCCCCOc1cccc(C(F)(F)F)c1)C(=O)CC,inactive,–,–,–
CCC(=O)C(CCCCCCOc1ccc(CC)cc1)C(=O)CC,–,6,12,–
CCC(=O)C(CCCCCCOc1cccc([N+](=O)[O-])c1)C(=O)CC,inactive,3,–,–
CCC(=O)C(CCCCCCOc1ccc(O)cc1)C(=O)CC,–,12,3,–
Nc1ncnc2c1ncn2[C@@H]1O[C@H](CO)[C@@H](O)[C@@H]1O [VIDARABINE],–,–,–,MIC (Human alphaherpesvirus 1 [4]): 12 µg/mL; MIC (Human alphaherpesvirus 2 [5]): 12 µg/mL
CCOC(=O)c1ccc(OCCCCCCC(C(=O)CC)C(=O)CC)cc1,–,6,3,–
CCC(=O)C(CCCCCCOc1ccc(O)cc1Cl)C(=O)CC,–,–,6,–
O=c1[nH]c(=O)n([C@H]2C[C@H](O)[C@@H](CO)O2)cc1I [IDOXURIDINE],–,–,–,MIC (Human alphaherpesvirus 1 [4]): 6 µg/mL; MIC (Human alphaherpesvirus 2 [5]): 6 µg/mL
CCOC(=O)C(CCCCCCOc1ccc(OC)cc1Cl)C(C)=O (configuration not stated),inactive,6,–,–
CCC(=O)C(CCCCCCOc1ccc(I)cc1)C(=O)CC,–,3,6,–
CCC(=O)C(CCCCCCOc1cc(Cl)cc(OC)c1)C(=O)CC,–,6,12,–
CCC(=O)C(CCCCCCOc1ccccc1)C(=O)CC,–,6,1.5,–
CCC(=O)C(CCCCCCOc1ccc(OCc2ccccc2)cc1Cl)C(=O)CC,–,3,3,–
CCC(=O)C(CCCCCCOc1c(F)c(F)c(F)c(F)c1F)C(=O)CC,–,–,12,–
CCC(=O)C(CCCCCCOc1ccc(OC(=O)c2ccc(OC)cc2)cc1)C(=O)CC,inactive,6,–,–
CCC(=O)C(CCCCCCOc1ccc(F)cc1Cl)C(=O)CC,–,3,6,–
CCC(=O)C(CCCCCCOc1ccc(Br)cc1Cl)C(=O)CC,–,3,3,–
CCC(=O)C(CCCCCCCCCCOc1ccc(OC)cc1Cl)C(=O)CC,–,12,6,–
CCC(=O)C(CCCCCOc1ccc2c(c1)OCO2)C(=O)CC,inactive,–,–,–
CCC(=O)C(CCCCCCOc1ccc(OCc2ccccc2)cc1)C(=O)CC,–,1.5,1.5,–
CCC(=O)C(CCCCCCOc1ccc(OCCO)cc1Cl)C(=O)CC,–,3,1.5,–
COc1ccc(OCCCCCCC(C(=O)C(C)(C)C)C(=O)C(C)(C)C)c(Cl)c1,–,–,6,–

Structure (SMILES),inhibition (Human alphaherpesvirus 2 [1]),MIC (Equine rhinovirus [2]) [µg/mL],MIC (Human alphaherpesvirus 2 [3]) [µg/mL],further results
CCC(=O)C(CCCCCCCCOc1ccc2c(c1)OCO2)C(=O)CC,inactive,–,–,–
CCC(=O)C(CCCCCCOc1ccc2c(c1)OCO2)C(=O)CC,inactive,3,–,–
CCC(=O)C(CCCCCCOc1ccccc1Cl)C(=O)CC,–,3,6,–
CCC(=O)C(CCCCCCOc1c(Cl)c(Cl)c(Cl)c(Cl)c1Cl)C(=O)CC,inactive,12,–,–
CCC(=O)C(CCCCCCCOc1ccc2c(c1)OCO2)C(=O)CC,inactive,6,–,–
CCC(=O)C(CCCCCCOc1c(I)cc(I)cc1I)C(=O)CC,–,12,6,–
CCC(=O)C(CCCCOc1ccc2c(c1)OCO2)C(=O)CC,inactive,12,–,–
CCC(=O)C(CCCCCCOc1cccc(N(C)C)c1)C(=O)CC,inactive,6,–,–
CCC(=O)C(CCCCCCOc1ccc(Cl)cc1Cl)C(=O)CC,–,–,3,–
COc1ccc(OCCCCCCC(C(C)=O)C(C)=O)c(Cl)c1,–,–,12,–
CCC(=O)C(CCCCCCOc1ccc(C(=O)O)cc1)C(=O)CC,inactive,6,–,–
CCC(=O)C(CCCCCCOc1ccccc1[N+](=O)[O-])C(=O)CC,–,6,6,–
CCC(=O)C(CCCCCCOc1ccc(Cl)cc1)C(=O)CC,inactive,3,–,–
CCC(=O)C(CCCCCCOc1ccc(OCCN(CC)CC)cc1)C(=O)CC,inactive,25,–,–
CCC(=O)C(CCCCCCOc1cccc(I)c1)C(=O)CC,–,6,6,–
CCC(=O)C(CCCCCCOc1ccccc1C(F)(F)F)C(=O)CC,–,6,6,–
CCC(=O)C(CCOCCOc1ccc(OC)cc1Cl)C(=O)CC,–,25,12,–
CCC(=O)C(CCCCCCOc1ccc(OC)cc1Br)C(=O)CC,–,3,6,–
CCC(=O)C(CCCCCCOc1ccc(OC(=O)c2ccc(C)cc2)cc1)C(=O)CC,inactive,12,–,–
CCC(=O)C(CCCCCCOc1ccccc1F)C(=O)CC,–,3,12,–
CCC(=O)C(CCCCCCOc1ccc(OC)cc1[N+](=O)[O-])C(=O)CC,–,3,6,–
CCC(=O)C(CCCCCCOc1ccc(OC(=O)c2ccccc2)cc1)C(=O)CC,inactive,–,–,–

Structure (SMILES),inhibition (Human alphaherpesvirus 2 [1]),MIC (Equine rhinovirus [2]) [µg/mL],MIC (Human alphaherpesvirus 2 [3]) [µg/mL],further results
CCC(=O)C(CCCCCCOc1ccc(S(N)(=O)=O)cc1)C(=O)CC,–,–,12,–
CCC(=O)C(CCCCCCOc1ccc(OC)cc1)C(=O)CC,–,6,25,–
CCC(=O)C(CCCCCCOc1ccc(F)cc1)C(=O)CC,–,3,3,–
CCC(=O)C(CCCCCCOc1ccc(OC(=O)CCCN2CCOCC2)cc1)C(=O)CC,–,12,12,–
CCC(=O)C(CCCCOc1ccc(OC)cc1Cl)C(=O)CC,inactive,–,–,–
CCC(=O)C(CCCCCOc1ccc(OC)cc1Cl)C(=O)CC,–,6,6,–
CCC(=O)C(CCCCCCOc1ccc(SC)cc1)C(=O)CC,inactive,3,–,–
CCC(=O)C(CCCCCCOc1cc(Cl)c(OC)cc1Cl)C(=O)CC,–,3,6,–
Nc1ccn([C@@H]2O[C@H](CO)[C@@H](O)[C@@H]2O)c(=O)n1 [CYTARABINE],–,–,–,MIC (Human alphaherpesvirus 1 [4]): < 3 µg/mL; MIC (Human alphaherpesvirus 2 [5]): < 3 µg/mL
CCC(=O)C(CCCCCCOc1ccc(OC(C)=O)cc1Cl)C(=O)CC,inactive,12,–,–
CCC(=O)C(CCCCCCCOc1ccc(OC)cc1Cl)C(=O)CC,–,3,6,–
CCC(=O)C(CCCCCCCCOc1ccc(OC)cc1Cl)C(=O)CC,–,3,3,–
CCC(=O)C(CCCCCCOc1ccc(Br)cc1)C(=O)CC,–,3,6,–
CCC(=O)C(CCCOc1ccc2c(c1)OCO2)C(=O)CC,inactive,–,–,–
CCC(=O)C(CCCCCCOc1ccc(C(C)=O)cc1OC)C(=O)CC,–,–,12,–
CCC(=O)C(CCCCCCOc1ccc([N+](=O)[O-])cc1Cl)C(=O)CC,–,3,3,–
CCC(=O)C(CCCCCCOc1ccc(OC)cc1Cl)C(=O)CC [ARILDONE],–,1.5,6,MIC [6]: 1.5 µg/mL; Activity (Influenza A virus [7]): 99.9%; Activity (Equine rhinovirus [8]): 98%; MIC [9]: 3 µg/mL; Activity (Equine rhinovirus [10]): 99.5%; MIC (Human alphaherpesvirus 1 [4]): 6 µg/mL; MIC (rhinovirus A2): 0.7 µg/mL; Activity (Influenza A virus [11]): 90%; Activity (Equine rhinovirus [12]): 70%; MIC [13]: 3 µg/mL; MIC (rhinovirus B14): 1.5 µg/mL; MIC (Human alphaherpesvirus 1 [14]): 6 µg/mL; MIC (Human alphaherpesvirus 2 [5]): 6 µg/mL
CCC(=O)C(CCCCCCOc1ccccc1I)C(=O)CC,inactive,12,–,–
CCC(=O)C(CCCCCCOc1ccc(C#N)cc1)C(=O)CC,inactive,–,–,–
CCC(=O)C(CCCCCCCCCOc1ccc(OC)cc1Cl)C(=O)CC,–,6,12,–
